Earlier results as cited in patent US20100297230A1, “COMPOSITIONS AND METHODS FOR PROSTATE AND MENSTRUAL/MENOPAUSAL RELATED HEALTH” (priority 2009, published 2010).
Entries after “also recorded” stand apart in the source; their conditions may differ. Like-named read-outs stand apart in the source and are kept apart here. Each block holds one compound with its values, some of them ahead of it.

Columns and labels:
[1] = tested on: rats with prostatic hyperplasia; conditions: testosterone enanthate treated rats; 0.1 mg benzylglucosinolate
[2] = molecular target: T1, primary alpha receptor (estrogen receptor) (Homo sapiens, UniProt P03372)
T1 sequence (P03372 1-595): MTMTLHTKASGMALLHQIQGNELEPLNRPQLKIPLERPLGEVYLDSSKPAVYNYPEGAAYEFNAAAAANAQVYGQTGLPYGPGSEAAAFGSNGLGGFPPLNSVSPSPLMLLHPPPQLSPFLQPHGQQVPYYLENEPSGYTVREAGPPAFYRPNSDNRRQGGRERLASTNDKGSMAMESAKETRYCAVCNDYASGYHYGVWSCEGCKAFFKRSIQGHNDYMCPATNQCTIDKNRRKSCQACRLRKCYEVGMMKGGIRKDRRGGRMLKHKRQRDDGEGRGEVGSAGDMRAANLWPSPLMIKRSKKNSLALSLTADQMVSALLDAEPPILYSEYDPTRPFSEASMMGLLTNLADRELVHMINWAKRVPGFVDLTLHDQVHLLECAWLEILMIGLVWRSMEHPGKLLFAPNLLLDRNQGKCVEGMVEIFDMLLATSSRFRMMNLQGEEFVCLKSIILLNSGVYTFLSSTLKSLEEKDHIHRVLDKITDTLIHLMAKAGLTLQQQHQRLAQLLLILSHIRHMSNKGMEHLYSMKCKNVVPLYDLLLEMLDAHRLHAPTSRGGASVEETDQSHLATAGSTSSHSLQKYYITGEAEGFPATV

[3] = tested on: late postmenopausal women; conditions: daily 60 mg icariin, 15 mg daidzein, 3 mg genistein; over 25 months; compared to placebo
[4] = molecular target: estrogen receptor beta (Homo sapiens, UniProt Q92731)
Sequence of estrogen receptor beta (Q92731 whole entry, species assumed): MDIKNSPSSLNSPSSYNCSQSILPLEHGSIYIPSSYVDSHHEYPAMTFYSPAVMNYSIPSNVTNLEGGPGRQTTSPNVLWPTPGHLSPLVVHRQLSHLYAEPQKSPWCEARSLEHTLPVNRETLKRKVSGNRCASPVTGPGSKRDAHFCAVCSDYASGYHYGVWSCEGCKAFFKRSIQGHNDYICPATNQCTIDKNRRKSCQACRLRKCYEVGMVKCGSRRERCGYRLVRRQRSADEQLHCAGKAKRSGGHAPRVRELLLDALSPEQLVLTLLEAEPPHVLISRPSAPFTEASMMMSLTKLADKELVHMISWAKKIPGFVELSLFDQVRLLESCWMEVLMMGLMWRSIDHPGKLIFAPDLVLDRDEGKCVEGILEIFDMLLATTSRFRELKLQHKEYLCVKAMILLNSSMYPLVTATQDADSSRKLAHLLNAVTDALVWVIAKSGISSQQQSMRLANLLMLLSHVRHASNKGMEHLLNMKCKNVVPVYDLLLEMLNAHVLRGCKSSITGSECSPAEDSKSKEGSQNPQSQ

[5] = single dose of Epimedium tea
[6] = tested on: COX-2 expression
[7] = in vivo
[8] = tested on: human prostate carcinoma PC-3 cells; conditions: in vitro
[9] = tested on: human prostatic smooth muscle cells
[10] = tested on: MMP9; conditions: PC-3 cells
[11] = male and female subjects 18-55 yrs
[12] = tested on: MMP2; conditions: PC-3 cells
[13] = tested on: rats; conditions: for prostate and seminal vesicle size: 270 mg/kg daily injection, compared to all other treatments, P<0.05

Compound: O=S(=O)(O)O/N=C(\Cc1ccccc1)S[C@@H]1O[C@H](CO)[C@@H](O)[C@H](O)[C@H]1O [Benzylglucosinolate]
prostate weight [1]: as effective at reducing prostate weight as 0.1 mg finasteride

interaction with estrogen receptor alpha [2]: not with the primary alpha receptor
peak serum icariin concentration ([5]; 12.6 mg icariin ingested): 2.1 ng/mL
Compound: COc1ccc(-c2oc3c(CC=C(C)C)c(O[C@@H]4O[C@H](CO)[C@@H](O)[C@H](O)[C@H]4O)cc(O)c3c(=O)c2O[C@@H]2O[C@@H](C)[C@H](O)[C@@H](O)[C@H]2O)cc1 [icariin, 5-hydroxy-2-(4-methoxyphenyl)-8-(3-methylbut-2-enyl)-7-[(2S,3R,4S,5S,6R)-3,4,5-trihydroxy-6-(hydroxymethyl)oxan-2-yl]oxy-3-[(2S,3R,4R,5R,6S)-3,4,5-trihydroxy-6-methyloxan-2-yl]oxychromen-4-one]
bone mass density / bone loss [3]: increases bone density
interaction with estrogen receptor beta [4]: interact with estrogen receptor beta; also recorded: targets the beta receptor over the alpha receptor

serum desmethylicaritin ([5]; desmethyl-icaritin 0.19 mg): not detected
Compound: CC(C)=CCc1c(O)cc(O)c2c(=O)c(O)c(-c3ccc(O)cc3)oc12 [Desmethylicaritin]

metabolic conversion [7]: converted to 3-O-methyl rosmarinic acid
time to enter the system after administration [7]: ≤ 20 min
Compound: O=C(/C=C/c1ccc(O)c(O)c1)O[C@H](Cc1ccc(O)c(O)c1)C(=O)O [Rosmarinic acid]
AP-1-dependent activation of COX-2 expression [6]: potential preventative effects

time of peak icaritin level [5]: 8 h
Compound: COc1ccc(-c2oc3c(CC=C(C)C)c(O)cc(O)c3c(=O)c2O)cc1 [icaritin]
growth of prostate carcinoma cells [8]: inhibit prostate cancer cell growth
growth of prostate carcinoma cells ([8]; listed as Icaritin): strongly inhibited growth
apoptosis of human prostatic smooth muscle cells [9]: inducing apoptosis; also recorded: induces apoptosis
cyclin D1 and CDK4 expression [9]: decreases
growth of human prostatic smooth muscle cells [9]: reduces the growth

peak plasma concentration [11]: 463 ng/mL
time to peak plasma concentration [11]: 3.5 h
Compound: O=c1c(O)c(-c2ccc(O)c(O)c2)oc2cc(O)cc(O)c12 [quercetin, 2-(3,4-dihydroxyphenyl)-3,5,7-trihydroxy-4H-chromen-4-one]
MMP9 activity ([10]; P<0.05): significantly inhibited
MMP9 expression ([10]; dose dependent manner): inhibited
MMP2 activity ([12]; P<0.05): significantly inhibited
MMP2 expression ([12]; dose dependent manner): inhibited
prostate and seminal vesicle size [13]: decreased significantly
prostate and seminal vesicle size ([13]; listed as Quercetin): effective at reducing prostate size
sperm quality and sexual organ function ([13]; 270 mg/kg group): positive effect
